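Values below derive from 48-hour exposures of cells grown in 96-well plates, with endpoints linearly interpolated between the two concentrations bracketing the appropriate inhibition level. The concentration for 50% growth inhibition is given as GI50.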 Activity calls are given as the source filed them. Rule as the data show it: active = GI50 up to about 1.1 µM and inactive = higher.
How the values were obtained:
Test in all cases: inhibition of tumour cell growth, NCI panel, 48 h
ACHN = system: ACHN
MOLT-4 = system: MOLT-4
OVCAR-8 = system: OVCAR-8
NCI-H23 = system: NCI-H23
DU-145 = system: DU-145
MDA-N = system: MDA-N
KM12 = system: KM12
SF-539 = system: SF-539
IGROV-1 = system: IGROV-1
SNB-19 = system: SNB-19
SF-268 = system: SF-268
RPMI-8226 = system: RPMI-8226
HCT-15 = system: HCT-15
T47D = system: T47D
K562 = system: K562
HOP-92 = system: HOP-92
PC-3 = system: PC-3
HCT-116 = system: HCT-116
SF-295 = system: SF-295
SK-OV-3 = system: SK-OV-3

| SMILES | GI50 (ACHN) | GI50 (MOLT-4) | GI50 (OVCAR-8) | GI50 (NCI-H23) | GI50 (DU-145) | GI50 (MDA-N) | GI50 (KM12) | GI50 (SF-539) | GI50 (IGROV-1) | GI50 (SNB-19) | GI50 (SF-268) | GI50 (RPMI-8226) | GI50 (HCT-15) | GI50 (T47D) | GI50 (K562) | GI50 (HOP-92) | GI50 (PC-3) | GI50 (HCT-116) | GI50 (SF-295) | GI50 (SK-OV-3) |
| --- | --- | --- | --- | --- | --- | --- | --- | --- | --- | --- | --- | --- | --- | --- | --- | --- | --- | --- | --- | --- |
| CCOP(=O)(OCC)C(C)(CC)NC1=NC(C(F)(F)F)(C(F)(F)F)NC(=O)N1 (stereo not given) | > 100 µM (inactive) | > 100 µM (inactive) | > 100 µM (inactive) | > 100 µM (inactive) | > 100 µM (inactive) | > 100 µM (inactive) | > 100 µM (inactive) | > 100 µM (inactive) | 70.1 µM (inactive) | > 100 µM (inactive) | > 100 µM (inactive) | > 100 µM (inactive) | > 100 µM | 82 µM (inactive) | > 100 µM (inactive) | > 100 µM (inactive) | > 100 µM (inactive) | > 100 µM (inactive) | > 100 µM (inactive) | > 100 µM (inactive) |
| O=C(O)CC1NCc2cc3ccccc3nc21 (stereo not given) | > 100 µM (inactive) | > 100 µM (inactive) | > 100 µM (inactive) | > 100 µM (inactive) | > 100 µM (inactive) | > 100 µM (inactive) | > 100 µM (inactive) | > 100 µM (inactive) | > 100 µM (inactive) | > 100 µM (inactive) | > 100 µM (inactive) | > 100 µM (inactive) | > 100 µM | > 100 µM (inactive) | > 100 µM (inactive) | > 100 µM (inactive) | > 100 µM (inactive) | > 100 µM (inactive) | > 100 µM (inactive) | > 100 µM (inactive) |
| N#CC1N(C(=O)c2ccc(F)cc2)c2ccccc2N1C(=O)c1ccc(F)cc1 | 38.5 µM (inactive) | 17.3 µM (inactive) | 48.1 µM (inactive) | 50.4 µM (inactive) | 32.9 µM (inactive) | 48.5 µM (inactive) | 91.6 µM (inactive) | 62.7 µM (inactive) | 32.4 µM (inactive) | > 100 µM (inactive) | > 100 µM (inactive) | 23.7 µM (inactive) | 31.3 µM | 27.2 µM (inactive) | 28.2 µM (inactive) | 18.5 µM (inactive) | 49.1 µM (inactive) | 42.3 µM (inactive) | > 100 µM (inactive) | > 100 µM (inactive) |
| O=C(CC(NC(=O)C(F)(F)F)C(=O)O)OCc1ccccc1 (stereo not given) | > 100 µM (inactive) | > 100 µM (inactive) | > 100 µM (inactive) | > 100 µM (inactive) | > 100 µM (inactive) | > 100 µM (inactive) | > 100 µM (inactive) | > 100 µM (inactive) | > 100 µM (inactive) | > 100 µM (inactive) | > 100 µM (inactive) | > 100 µM (inactive) | > 100 µM | > 100 µM (inactive) | > 100 µM (inactive) | > 100 µM (inactive) | > 100 µM (inactive) | > 100 µM (inactive) | > 100 µM (inactive) | > 100 µM (inactive) |
| Cc1ccc2c(n1)C(=O)c1ccccc1C2=O | 31.8 µM (inactive) | 33 µM (inactive) | 26.7 µM (inactive) | 14.7 µM (inactive) | 17.3 µM (inactive) | > 45.6 µM (inactive) | 30.1 µM (inactive) | > 56.5 µM (inactive) | 24.3 µM (inactive) | 26.2 µM (inactive) | 31.3 µM (inactive) | 32.6 µM (inactive) | 25.8 µM | 30.3 µM (inactive) | 30.2 µM (inactive) | 51.6 µM (inactive) | 23.9 µM (inactive) | 22.9 µM (inactive) | 25.8 µM (inactive) | 77.4 µM (inactive) |
